Measured values from ChEMBL document CHEMBL1151349, “The antineoplastic quassinoids of Simaba cuspidata spruce and Ailanthus grandis Prain” (1980).
Calls of active or inactive are those of the source. The rule behind the calls is not given here.

Assays:
P388 [1] = assay: Antineoplastic activity against mouse P388 cells; type: functional
P388 [2] = assay: In vivo antineoplastic activity against mouse P388 cells upto 2.0 mg/kg; type: functional, organism-based; set-up: dose 2 mg/kg
P388 [3] = assay: In vivo antineoplastic activity against mouse P388 cells assessed as increase in survival time at 0.08 to 0.60 mg/kg; type: functional; details: dose mg/kg 0.08-0.60

Q: Which results are given for `C/C=C(/C)C(=O)O[C@@H]1[C@H]2C(C)=C[C@H](O)[C@@H](O)[C@]2(C)[C@H]2[C@@]3(O)OC[C@@]24[C@@H]1OC(=O)C[C@H]4[C@@H](C)[C@H]3O`?
A: GI (P388 [1]): 0.24 µg/mL; Activity (P388 [2]): inactive

Q: `C/C=C(/C)C(=O)O[C@@H]1[C@H]2C(C)=CC(=O)[C@@H](O)[C@]2(C)[C@H]2[C@@]3(O)OC[C@@]24[C@@H]1OC(=O)C[C@H]4[C@@H](C)[C@H]3O` was tested. Which GI (P388 [1]) did it give?
A: <0.01 µg/mL

Q: And the Activity (P388 [3])?
A: 34%

Q: For `CC[C@@](C)(OC(C)=O)C(=O)O[C@H]1C(=O)O[C@@H]2C[C@H]3C(C)=C[C@H](O)[C@@H](O)[C@]3(C)[C@H]3[C@@]4(O)OC[C@]32[C@@H]1[C@@H](C)[C@H]4O`, which Activity (P388 [1]) is on record?
A: inactive
